Results as given in patent US8129398B2 (priority 2008, dated 2012).

The molecules below were run against T1, HIV-integrase (Human immunodeficiency virus type 1 group M subtype B, UniProt P12497) (assay: HIV-Integrase Inhibition Activity (SPA bead integration assay with P33 labeled target DNA)). Details: recombinant integrase, class symbols; read-out: in vitro activity.
T1 construct: Recombinant integrase (0.26 ng) was incubated with the beads
Assay type: biochemical
How it was run: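 Biotinylated substrate DNA on streptavidin SPA beads loaded with recombinant integrase (90 min, 37° C), washed, then inhibitor plus 0.1 fmol P33-labeled target DNA added. Reaction stopped with 10 mM EDTA; integration measured as CPM by scintillation, giving IC50 ranks.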

First: CN(C)C(=O)C(=O)NC12CCC(CC1)Cn1c2nc(C(=O)NCCc2ccccc2Cl)c(O)c1=O [Example 344]
Second: CN(C)C(=O)C(=O)NC12CCC(CC1)Cn1c2nc(C(=O)NCc2ccccc2F)c(O)c1=O [Example 367]
The IC50 of the first is higher: 0.01 to 0.1 µM for the first, < 0.01 µM for the second.

Compared with `CN(C)C(=O)C(=O)NC12CCC(CC1)Cn1c2nc(C(=O)NCCc2ccc(Cl)cc2)c(O)c1=O` [Example 345], `CN(C)C(=O)C(=O)NC12CCC(CC1)Cn1c2nc(C(=O)NCc2ccc(Cl)cc2)c(O)c1=O` [Example 374] is lower in IC50: 0.01 to 0.1 µM for the first, < 0.01 µM for the second.

Going from `COc1ccc(CCNC(=O)c2nc3n(c(=O)c2O)CC2CCC3(NC(=O)C(=O)N(C)C)CC2)cc1` [Example 346] to `COc1ccc(CNC(=O)c2nc3n(c(=O)c2O)CC2CCC3(NC(=O)C(=O)N(C)C)CC2)cc1` [Example 375], the IC50 falls from > 0.1 µM to < 0.01 µM. The second is the more potent here.

First: CN(C)C(=O)C(=O)NC12CCC(CC1)Cn1c2nc(C(=O)NCCc2ccc(O)cc2)c(O)c1=O [Example 347]
Second: CN(C)C(=O)C(=O)NC12CCC(CC1)Cn1c2nc(C(=O)NCc2ccc(O)cc2)c(O)c1=O [Example 390]
The IC50 of the first is higher: > 0.1 µM for the first, 0.01 to 0.1 µM for the second.

`CN(C)C(=O)C(=O)NC12CCC(CC1)Cn1c2nc(C(=O)NCCC(C)(C)C)c(O)c1=O` [Example 348] and `CN(C)C(=O)C(=O)NC12CCC(CC1)Cn1c2nc(C(=O)NCC2CC2)c(O)c1=O` [Example 352] cannot be ordered by IC50: > 0.1 µM for the first, > 0.1 µM for the second.

`CN(C)C(=O)C(=O)NC12CCC(CC1)Cn1c2nc(C(=O)NCCCc2ccccc2)c(O)c1=O` [Example 349] and `CN(C)C(=O)C(=O)NC12CCC(CC1)Cn1c2nc(C(=O)NCCOc2ccccc2)c(O)c1=O` [Example 355] cannot be ordered by IC50: < 0.01 µM for the first, < 0.01 µM for the second.

Compared with `CN(C)C(=O)C(=O)NC12CCC(CC1)Cn1c2nc(C(=O)NCCCn2ccnc2)c(O)c1=O` [Example 350], `CN(C)C(=O)C(=O)NC12CCC(CC1)Cn1c2nc(C(=O)NCCc2cccs2)c(O)c1=O` [Example 354] is lower in IC50: > 0.1 µM for the first, 0.01 to 0.1 µM for the second. The second is the more potent here.

First: CN(C)C(=O)C(=O)NC12CCC(CC1)Cn1c2nc(C(=O)NCCc2ccc(S(N)(=O)=O)cc2)c(O)c1=O [Example 351]
Second: CN(C)C(=O)C(=O)NC12CCC(CC1)Cn1c2nc(C(=O)NCc2ccc(S(N)(=O)=O)cc2)c(O)c1=O [Example 379]
The IC50 of the first is higher: > 0.1 µM for the first, < 0.01 µM for the second.

`CN(C)C(=O)C(=O)NC12CCC(CC1)Cn1c2nc(C(=O)NCCc2cccc(Cl)c2)c(O)c1=O` [Example 353] and `CN(C)C(=O)C(=O)NC12CCC(CC1)Cn1c2nc(C(=O)NCc2cccc(Cl)c2)c(O)c1=O` [Example 380] cannot be ordered by IC50: < 0.01 µM for the first, < 0.01 µM for the second.

Compared with `CN(C)C(=O)C(=O)NC12CCC(CC1)Cn1c2nc(C(=O)NC2CCN(Cc3ccccc3)C2)c(O)c1=O` (stereo not shown) [Example 356], `CC(NC(=O)c1nc2n(c(=O)c1O)CC1CCC2(NC(=O)C(=O)N(C)C)CC1)c1ccccc1` (stereo not shown) [Example 366] is lower in IC50: > 0.1 µM for the first, < 0.01 µM for the second.

`CN(C)C(=O)C(=O)NC12CCC(CC1)Cn1c2nc(C(=O)NCCc2ccc(F)cc2)c(O)c1=O` [Example 358] and `CN(C)C(=O)C(=O)NC12CCC(CC1)Cn1c2nc(C(=O)NCc2ccc(N)cc2)c(O)c1=O` [Example 385] fall in the same range of IC50: 0.01 to 0.1 µM for the first, 0.01 to 0.1 µM for the second.

`CN(C)C(=O)C(=O)NC12CCC(CC1)Cn1c2nc(C(=O)NCc2csc(-c3ccccc3)n2)c(O)c1=O` [Example 359] and `CN(C)C(=O)C(=O)NC12CCC(CC1)Cn1c2nc(C(=O)NCc2cccc(-c3ccccc3)c2)c(O)c1=O` [Example 388] cannot be ordered by IC50: < 0.01 µM for the first, < 0.01 µM for the second.

`CN(C)C(=O)C(=O)NC12CCC(CC1)Cn1c2nc(C(=O)NCc2nc3ccccc3s2)c(O)c1=O` [Example 360] and `Cc1ccccc1CNC(=O)c1nc2n(c(=O)c1O)CC1CCC2(NC(=O)C(=O)N(C)C)CC1` [Example 370] cannot be ordered by IC50: < 0.01 µM for the first, < 0.01 µM for the second.

First: CN(C)C(=O)C(=O)NC12CCC(CC1)Cn1c2nc(C(=O)NCc2cccs2)c(O)c1=O [Example 361]
Second: CN(C)C(=O)C(=O)NC12CCC(CC1)Cn1c2nc(C(=O)NCc2ccccn2)c(O)c1=O [Example 363]
The IC50 of the first is lower: < 0.01 µM for the first, 0.01 to 0.1 µM for the second.

`CN(C)C(=O)C(=O)NC12CCC(CC1)Cn1c2nc(C(=O)NCc2ccc3c(c2)OCO3)c(O)c1=O` [Example 362] and `CN(C)C(=O)C(=O)NC12CCC(CC1)Cn1c2nc(C(=O)NCc2ccc(Cl)c(Cl)c2)c(O)c1=O` [Example 372] cannot be ordered by IC50: < 0.01 µM for the first, < 0.01 µM for the second.

First: CN(C)C(=O)C(=O)NC12CCC(CC1)Cn1c2nc(C(=O)NCc2cccnc2)c(O)c1=O [Example 364]
Second: CN(C)C(=O)C(=O)NC12CCC(CC1)Cn1c2nc(C(=O)NCc2ccncc2)c(O)c1=O [Example 365]
The IC50 of the first is lower: 0.01 to 0.1 µM for the first, > 0.1 µM for the second. The first is the more potent here.

`CN(C)C(=O)C(=O)NC12CCC(CC1)Cn1c2nc(C(=O)NCc2ccc(Cl)cc2Cl)c(O)c1=O` [Example 368] and `CN(C)C(=O)C(=O)NC12CCC(CC1)Cn1c2nc(C(=O)NCc2cc(Cl)cc(Cl)c2)c(O)c1=O` [Example 383] cannot be ordered by IC50: < 0.01 µM for the first, < 0.01 µM for the second.

`COc1ccccc1CNC(=O)c1nc2n(c(=O)c1O)CC1CCC2(NC(=O)C(=O)N(C)C)CC1` [Example 369] and `CN(C)C(=O)C(=O)NC12CCC(CC1)Cn1c2nc(C(=O)NCc2ccccc2OC(F)(F)F)c(O)c1=O` [Example 386] cannot be ordered by IC50: < 0.01 µM for the first, < 0.01 µM for the second.

`CN(C)C(=O)C(=O)NC12CCC(CC1)Cn1c2nc(C(=O)NCc2cccc(F)c2)c(O)c1=O` [Example 371] and `COc1cccc(CNC(=O)c2nc3n(c(=O)c2O)CC2CCC3(NC(=O)C(=O)N(C)C)CC2)c1` [Example 373] cannot be ordered by IC50: < 0.01 µM for the first, < 0.01 µM for the second.

First: CN(C)C(=O)C(=O)NC12CCC(CC1)Cn1c2nc(C(=O)NCc2ccccc2C(F)(F)F)c(O)c1=O [Example 377]
Second: CN(C)C(=O)C(=O)NC12CCC(CC1)Cn1c2nc(C(=O)NCc2ccccc2-c2ccccc2)c(O)c1=O [Example 387]
The IC50 of the first is higher: 0.01 to 0.1 µM for the first, < 0.01 µM for the second. The second is the more potent here.

First: CN(C)C(=O)C(=O)NC12CCC(CC1)Cn1c2nc(C(=O)NCc2ccc(N(C)C)cc2)c(O)c1=O [Example 378]
Second: COc1cccc(CNC(=O)c2nc3n(c(=O)c2O)CC2CCC3(NC(=O)C(=O)N(C)C)CC2)c1OC [Example 381]
The IC50 of the first is higher: 0.01 to 0.1 µM for the first, < 0.01 µM for the second. The second is the more potent here.

First: Cc1cnc(CNC(=O)c2nc3n(c(=O)c2O)CC2CCC3(NC(=O)C(=O)N(C)C)CC2)cn1 [Example 389]
Second: CC(C)C(=O)N1CCCC1C(=O)NC12CCC(CC1)Cn1c2nc(C(=O)NCc2ccc(F)cc2)c(O)c1=O (stereo not shown) [Example 399]
The IC50 of the first is higher: 0.01 to 0.1 µM for the first, < 0.01 µM for the second.

`Cc1cccc(S(=O)(=O)NC23CCC(CC2)Cn2c3nc(C(=O)NCc3ccc(F)cc3)c(O)c2=O)c1` [Example 391] and `O=C(NCc1ccc(F)cc1)c1nc2n(c(=O)c1O)CC1CCC2(NS(=O)(=O)c2ccccc2)CC1` [Example 395] cannot be ordered by IC50: < 0.01 µM for the first, < 0.01 µM for the second.

`Cc1oncc1S(=O)(=O)NC12CCC(CC1)Cn1c2nc(C(=O)NCc2ccc(F)cc2)c(O)c1=O` [Example 393] and `CC(C)S(=O)(=O)N1CCCC1C(=O)NC12CCC(CC1)Cn1c2nc(C(=O)NCc2ccc(F)cc2)c(O)c1=O` (stereo not shown) [Example 402] cannot be ordered by IC50: < 0.01 µM for the first, < 0.01 µM for the second.

`CCOC(=O)N1CCCC1C(=O)NC12CCC(CC1)Cn1c2nc(C(=O)NCc2ccc(F)cc2)c(O)c1=O` (stereo not shown) [Example 397] and `CCCOC(=O)N1CCCC1C(=O)NC12CCC(CC1)Cn1c2nc(C(=O)NCc2ccc(F)cc2)c(O)c1=O` (stereo not shown) [Example 398] cannot be ordered by IC50: < 0.01 µM for the first, < 0.01 µM for the second.

`O=C(NCc1ccc(F)cc1)c1nc2n(c(=O)c1O)CC1CCC2(NC(=O)C2CCCN2C(=O)C2CCC2)CC1` (stereo not shown) [Example 400] and `CNC(=O)N1CCCC1C(=O)NC12CCC(CC1)Cn1c2nc(C(=O)NCc2ccc(F)cc2)c(O)c1=O` (stereo not shown) [Example 401] cannot be ordered by IC50: < 0.01 µM for the first, < 0.01 µM for the second.
